The text below walks through data of patent publication US20150104519A1, “Pharmaceutical Compositions” (Alpharma Pharmaceuticals LLC, priority 2007, published 2015).

Counter-ions that a name gives are not always drawn.

For series [1] the following is noted: in comparison to a 15 mg dose of hydrocodone.
The conditions of series [2]: cited from earlier work.
For a further series, the system named is morphine effects. Conditions: three 100-mg doses of naltrexone; MS Contin; cited from earlier work.
The next series has as its system mu over delta sites. The settings on record: cited from earlier work.

On to `COc1ccc2c3c1O[C@H]1[C@@H](O)C=C[C@H]4[C@@H](C2)N(C)CC[C@@]341` [Codeine], for which, in series [1], the “Equianalgesic dose, Calculated Dose” value is reported as 90.0 mg.

`COc1ccc2c3c1OC1C(=O)CC[C@H]4[C@@H](C2)N(C)CC[C@]314` (stereo partly drawn) [Hydrocodone, 4,5-epoxy-3-methoxy-17-methylmorphinan-6-one]: the “Equianalgesic dose, Calculated Dose” value in series [1] is on record as 15.0 mg.

As for `CN1CC[C@]23CCCC[C@H]2[C@H]1Cc1ccc(O)cc13` [Levorphanol], in series [1], the “Equianalgesic dose, Calculated Dose” value was 1.8 mg.

Take `CCC(=O)C(CC(C)N(C)C)(c1ccccc1)c1ccccc1` (stereo not drawn) [Methadone]: the “Equianalgesic dose, Calculated Dose” value in series [1] is 9.0 mg.

In the case of `COc1ccc2c3c1OC1C(=O)CC[C@@]4(O)[C@@H](C2)N(C)CC[C@]314` (stereo partly drawn) [Oxycodone, 4,5-epoxy-14-hydroxy-3-methoxy-17-methylmorphinan-6-one], the “Equianalgesic dose, Calculated Dose” value in series [1] was 13.5 mg.

`O=C1CC[C@@]2(O)[C@H]3Cc4ccc(O)c5c4[C@@]2(CCN3CC2CC2)[C@H]1O5` [hydrochloride salt of naltrexone, Naltrexone HCl]: in series [2], the soluble in water entry was “about 100 mg/cc”.

On to `O=C1CC[C@@]2(O)[C@H]3Cc4ccc(O)c5c4[C@@]2(CCN3CC2CC2)[C@H]1O5` [naltrexone], for which the “blockade of morphine effects” value in the series with morphine effects is reported as “blocked”. The “blocking action, site preference” value in the series on mu over delta sites is “strong preferential blocking action against mu over delta sites”.

Turning to Meperidine, the “Equianalgesic dose, Calculated Dose” value in series [1] is listed as 135.0 mg.
